From ChEMBL document CHEMBL1129526, “Angular furoquinolinones, psoralen analogs: novel antiproliferative agents for skin diseases. Synthesis, biological activity, mechanism of action, and computer-aided studies” (J Med Chem, 1996)
Values after ≈ are worked out from the molar mass of the structure shown.

How the values were obtained:
Bos taurus = species: Bos taurus; assay: Association constant of binding of compound with calf thymus DNA was determined by using equilibrium dialysis.; settings: cattle
[1] = Partition Coefficient in n-octanol / water medium; assay type: physicochemical
[2] = Solubility of compound in water; assay type: physicochemical; settings: for solubility: water, read-out: S
Ehrlich [3] = assay: Compound was tested for the inhibition of DNA synthesis in Ehrlich cells by incubation in the dark relative to furoquinolinone; assay type: functional, Mus musculus
Ehrlich [4] = assay: Compound was tested for the inhibition of RNA synthesis in Ehrlich cells by UV -A Irradiation relative to furoquinolinone; assay type: functional, Mus musculus
Ehrlich [5] = assay: Compound was tested for the inhibition of RNA synthesis in Ehrlich cells by incubation in the dark relative to furoquinolinone; assay type: functional, Mus musculus
Ehrlich [6] = assay: Compound was tested for the inhibition of DNA synthesis in Ehrlich cells by incubation in the dark.; assay type: functional; settings: Mus musculus, read-out: ID50 (the source's name)
Ehrlich [7] = assay: Compound was tested for the inhibition of RNA synthesis in Ehrlich cells by incubation in the dark.; assay type: functional; settings: Mus musculus, read-out: ID50 (the source's name)
Ehrlich [8] = assay: Compound was tested for the inhibition of DNA synthesis in Ehrlich cells by UV -A Irradiation relative to furoquinolinone; assay type: functional, Mus musculus
Ehrlich [9] = assay: Compound was tested for the inhibition of DNA synthesis in Ehrlich cells by UV -A Irradiation; assay type: functional, Mus musculus
Ehrlich [10] = assay: Compound was tested for the inhibition of RNA synthesis in Ehrlich cells by UV -A Irradiation; assay type: functional, Mus musculus
[11] = Surviving fraction was evaluated at concentration 2 uM in T2 phage; assay type: functional
[12] = Surviving fraction was evaluated at concentration 4 uM in T2 phage; assay type: functional

Q: For `Cc1cc2c(o1)c(C)cc1c(C)cc(=O)n(C)c12`, which K (Bos taurus) is on record?
A: 11700 M⁻¹

Q: And the Partition coefficient [1]?
A: 163.5

Q: What about the solubility [2] of the same compound?
A: 4700 µg/mL (≈ 19.5 mM)

Q: What about the Relative activity (Ehrlich [3]) of the same compound?
A: 1

Q: What about the Relative activity (Ehrlich [4]) of the same compound?
A: 461

Q: What about the Relative activity (Ehrlich [5]) of the same compound?
A: 1

Q: What about the IC50 (Ehrlich [6]) of the same compound?
A: 2.33 µM

Q: What about the IC50 (Ehrlich [7]) of the same compound?
A: 1.35 µM

Q: And the Relative activity (Ehrlich [8])?
A: 77.6

Q: And the Du (Ehrlich [9])?
A: 0.9

Q: What about the Du (Ehrlich [10]) of the same compound?
A: 0.803

Q: What about the Surviving fraction [11] of the same compound?
A: 0.69

Q: Which results are given for `Cc1cc2c(o1)c(C)cc1c(C)cc(=O)oc12`?
A: K (Bos taurus): 10100 M⁻¹; Partition coefficient [1]: 1897; solubility [2]: 1460 µg/mL (≈ 6.4 mM); Relative activity (Ehrlich [4]): 16.83; Relative activity (Ehrlich [8]): 4.14; Du (Ehrlich [9]): 0.0481; Du (Ehrlich [10]): 0.0303; Surviving fraction [11]: 0.6

Q: With `COc1c2occc2cc2ccc(=O)oc12` [METHOXSALEN] as the compound, how does the K (Bos taurus) read?
A: 736 M⁻¹

Q: And the S ([2]; buffer)?
A: 23 mg/mL

Q: What about the Relative activity (Ehrlich [4]) of the same compound?
A: 1

Q: And the Relative activity (Ehrlich [8])?
A: 1

Q: And the Du (Ehrlich [9])?
A: 0.0116

Q: What about the Du (Ehrlich [10]) of the same compound?
A: 0.0018

Q: What about the Surviving fraction [11] of the same compound?
A: 0.8

Q: For `Cc1oc2c(C)cc3c(C)cc(=O)[nH]c3c2c1C`, which Relative activity (Ehrlich [3]) is on record?
A: 0.0926

Q: What about the Relative activity (Ehrlich [4]) of the same compound?
A: 582

Q: What about the Relative activity (Ehrlich [5]) of the same compound?
A: 0.256

Q: What about the IC50 (Ehrlich [6]) of the same compound?
A: 25.2 µM

Q: And the IC50 (Ehrlich [7])?
A: 5.27 µM

Q: What about the Relative activity (Ehrlich [8]) of the same compound?
A: 102.6

Q: And the Du (Ehrlich [9])?
A: 1.19

Q: And the Du (Ehrlich [10])?
A: 1.048

Q: And the Surviving fraction [12]?
A: 0.7
